Reference: patent US9630916B2, “Organocatalysts of oxidative protein folding” (Wisconsin Alumni Research Foundation, priority 2014, dated 2017)
Several values for one entry are separate records, joined by “and”; a condition that tells them apart may be missing. Equal entries are not always repeated. Where two headings read alike, the source gives them in different places.

T1: sRNase A (Bos taurus, UniProt P61823)
T1 construct: purchased Sigma-Aldrich
T1 sequence (P61823 27-150): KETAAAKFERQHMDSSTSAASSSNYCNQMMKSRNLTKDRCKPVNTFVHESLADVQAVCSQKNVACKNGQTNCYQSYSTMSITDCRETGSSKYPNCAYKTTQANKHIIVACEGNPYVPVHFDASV

B1: PDI: enzyme protein disulfide isomerase (EC 5.3.4.1); bovine liver PDI from Sigma-Aldrich used in the assay (protein, UniProt P05307 21-510, looked up)
Protein disulfide-isomerase: APDEEDHVLVLHKGNFDEALAAHKYLLVEFYAPWCGHCKALAPEYAKAAGKLKAEGSEIRLAKVDATEESDLAQQYGVRGYPTIKFFKNGDTASPKEYTAGREADDIVNWLKKRTGPAASTLSDGAAAEALVESSEVAVIGFFKDMESDSAKQFFLAAEVIDDIPFGITSNSDVFSKYQLDKDGVVLFKKFDEGRNNFEGEVTKEKLLDFIKHNQLPLVIEFTEQTAPKIFGGEIKTHILLFLPKSVSDYEGKLSNFKKAAESFKGKILFIFIDSDHTDNQRILEFFGLKKEECPAVRLITLEEEMTKYKPESDELTAEKITEFCHRFLEGKIKPHLMSQELPDDWDKQPVKVLVGKNFEEVAFDEKKNVFVEFYAPWCGHCKQLAPIWDKLGETYKDHENIVIAKMDSTANEVEAVKVHSFPTLKFFPASADRTVIDYNGERTLDGFKKFLESGGQDGAGDDDDLEDLEEAEEPDLEEDDDQKAVKDEL

Legend:
[1] = target: T1, sRNase A; assay: Assay for disulfide-bond isomerization activity: unscrambling of sRNase A to give native RNase A; assay type: biochemical, bovine; settings: for Folding yield (%): native RNase A from sRNase A, 1 mM catalyst, 30° C., 50 mM Tris-HCl pH 7.6, GSH 1.0 mM, GSSG 0.2 mM, after 5 h
Procedure: FIGS. 4A and 4B are graphs illustrating catalysis of disulfide-bond isomerization by PDI and PDI mimics 1-7. (4A) Is a graph of the time-course for the unscrambling of sRNase A to give native RNase A. All reactions were performed at 30° C. in 50 mM Tris-HCl buffer, pH 7.6, containing GSH (1.0 mM), GSSG (0.2 mM), and PDI or dithiol 1-7 (1.0 mM). (4B) Is a graph of yield of native RNase A achieved by PDI mimics 2-7 after 5 h as a function of the calculated log P values listed in Table 1.
Enzymatic catalysis provides an extremely sensitive measure of native protein structure. RNase A contains eight cysteine residues, which could form 105 (=7×5×3×1) distinct fully oxidized species, only one of which gives rises to enzymatic activity (FIG. 3). Accordingly, the ability of this panel of compounds to catalyze the isomerization of “scrambled” RNase A (sRNase A) was tested. “Scrambled” RNase A is a random mixture of oxidized species, compared to its native state. The isomerization reaction was monitored by measuring the gain of catalytic activity.
sRNase was prepared as described previously, and validated by its having low ribonucleolytic activity and few free thiols according to Ellman's assay. Bovine liver PDI was from Sigma-Aldrich (product #P3818). The activation of sRNase A in the presence of refolding catalysts was determined as described previously. Refolding reactions were performed at 30° C. in 50 mM Tris-HCl buffer, pH 7.6, containing GSH (1.0 mM), GSSG (0.2 mM), and catalyst (1.0 mM). Organocatalysts were delivered from 100-fold concentrated stock solutions in DMSO. Reactions were initiated by the addition of sRNase A to a final concentration of 5 μg/mL. Reaction progress was monitored by quantifying the cleavage of the substrate 6-FAM-dArUdAdA-6-TAMRA at 493/515 nm, as described previously. Assays were performed in triplicate at ambient temperature in a black polystyrene 96-well plate, in 200 μL of 0.10 M MES-NaOH buffer, pH 6.0, containing NaCl (0.10 M). The resulting fluorescence data were fitted to the equation kcat/KM=(ΔI/Δt)/(If−I0)[E], in which ΔI/Δt is the initial reaction velocity, I0 is the fluorescence intensity before addition of any ribonuclease, If is the fluorescence intensity after complete substrate hydrolysis, and [E] is the total ribonuclease concentration. Reaction progress was monitored every hour until the increase in activity leveled off (˜5 h). In FIG. 4A, data were fitted to eq 2. [active RNase A]=[sRNase A]t=0(1−e^[catalyst]tk^obs) (2)

[2] = Determination of disulfide E°′ (equilibration with oxidized β-mercaptoethanol, analytical HPLC, Nernst equation); assay type: physicochemical; settings: equilibrium with βME^ox, mean of three measurements
Procedure: (§1) Dithiol 2 was synthesized from diethylenetriamine in a few high-yielding steps (see: The Examples). Thiol pKa values were measured by monitored the thiols A238 am as a function of pH. […] These values are slightly less than those of BMC (Table 1), presumably due to the introduction of an additional electronegative nitrogen atom. To determine the reduction potential of the oxidized form of the dithiol, equimolar amounts of dithiol 2 and oxidized β-mercaptoethanol were equilibrated and the amount of each reduced and oxidized species was quantitated with analytical HPLC. […] Finally, to probe the effect of increasing hydrophobicity on catalyzing the formation of native disulfide bonds in proteins, dithiols 3-8 were synthesized.
The reduction potentials of BMC, 2, and 7 were determined as described previously. Briefly, an equilibrium was established between reduced BMC (or 2, 5, or 7) and βME^OX, and analyzed with analytical HPLC. The equilibrium concentrations were determined by integration of the peaks corresponding to βME and βME^ox. From these concentrations, the Keq for the reaction was determined and the reduction potential of BMC (or 2 or 7) was then calculated using the Nernst equation and EβME^OX^∘′=−0.260 V. The values reported are the mean (±SE) of three separate measurements for each compound

[3] = Determination of thiol pKa values (A238 vs pH); assay type: physicochemical; settings: potassium phosphate buffers of varied pH, absorbance at 238 nm, 0.10 M potassium phosphate buffers
Procedure: as §1
The thiol pKa values for 2 and 7 were determined by closely following a procedure reported previously that exploits the elevated absorbance of the deprotonated thiolate at 238 nm. […] [9, 55]
In eq 1, CT is the total thiol concentration, εSH^SH is the extinction coefficient of the doubly protonated form of 2 or 7, εSH^S− is the extinction coefficient of the singly protonated form of 2 or 7, and εS−^S− is the extinction coefficient of the doubly deprotonated form of 2 or 7.

[4] = cited from earlier work
[5] = PDI active-site disulfide; literature value [21, 22]; cited from earlier work
[6] = higher of two thiol pKa values, read-out: thiol pKa (second value)
[7] = lower of two thiol pKa values, read-out: thiol pKa (first value)

| Molecule | Folding yield (%) [1] [%] | Disulfide E°′ [2] [V] | pKa [3, 6] | pKa [3, 7] | other results |
| --- | --- | --- | --- | --- | --- |
| O=C(CS)NCCN(CCNC(=O)CS)C(=O)c1ccccc1 [Dithiol 6] | 60 ± 2 |  |  |  |  |
| CCCC(=O)N(CCNC(=O)CS)CCNC(=O)CS [Dithiol 4] | 54 ± 4 |  |  |  |  |
| CCCCCC(=O)N(CCNC(=O)CS)CCNC(=O)CS [Dithiol 5] | 57 ± 1 | −0.203 | 9.3 ± 0.3 | 8.1 ± 0.3 |  |
| CC(=O)N(CCNC(=O)CS)CCNC(=O)CS [Dithiol 3] | 45 ± 2 |  |  |  |  |
| CCc1ccc(C(=O)N(CCNC(=O)CS)CCNC(=O)CS)cc1 [Dithiol 7] | 66 ± 2 | −0.206 | 9.4 ± 0.2 | 8.1 ± 0.2 | increase of the yield of folded RNase A versus the uncatalyzed reaction ([1]; relative to uncatalyzed reaction (45 ± 2 %)): 47% |
| O=C(CS)NCCNCCNC(=O)CS [Dithiol 2] | 50 ± 2 |  | 9.2 ± 0.1 | 8 ± 0.2 | Disulfide E°′ ([2]; listed as 2): −0.192 V; Disulfide E°′ ([2]; listed as dithiol 2): −0.192±0.003 V |
| O=C(CS)N[C@@H]1CCCC[C@H]1NC(=O)CS (racemic) [Dithiol 1, (±)-trans-1,2-bis(mercaptoacetamido)cyclohexane, reference compound] | 42 ± 2 | −0.232 |  |  | thiol pKa (first value) ([4]; values from ref. [30]): 8.3; thiol pKa (second value) ([4]; values from ref. [30]): 9.9 |
| B1 | 87 ± 2 |  |  |  | Disulfide E°′ [5]: −0.18 V and −0.180 V; pKa ([4]; N-terminal cysteine in the active site of PDI, literature value): 6.7 |
